Measured values reported in patent US12661342B2, “Heteroaryl compounds and therapeutic uses thereof in conditions associated with the alteration of the activity of beta-glucocerebrosidase” (GT GAIN THERAPEUTICS SA, priority 2019, dated 2026).

Target: T1, β-glucocerebrosidase (Homo sapiens, UniProt P04062, L483P)
T1 construct: host or cells: human Gaucher disease patient fibroblasts GM08760A
T1 sequence (P04062 40-536 L483P): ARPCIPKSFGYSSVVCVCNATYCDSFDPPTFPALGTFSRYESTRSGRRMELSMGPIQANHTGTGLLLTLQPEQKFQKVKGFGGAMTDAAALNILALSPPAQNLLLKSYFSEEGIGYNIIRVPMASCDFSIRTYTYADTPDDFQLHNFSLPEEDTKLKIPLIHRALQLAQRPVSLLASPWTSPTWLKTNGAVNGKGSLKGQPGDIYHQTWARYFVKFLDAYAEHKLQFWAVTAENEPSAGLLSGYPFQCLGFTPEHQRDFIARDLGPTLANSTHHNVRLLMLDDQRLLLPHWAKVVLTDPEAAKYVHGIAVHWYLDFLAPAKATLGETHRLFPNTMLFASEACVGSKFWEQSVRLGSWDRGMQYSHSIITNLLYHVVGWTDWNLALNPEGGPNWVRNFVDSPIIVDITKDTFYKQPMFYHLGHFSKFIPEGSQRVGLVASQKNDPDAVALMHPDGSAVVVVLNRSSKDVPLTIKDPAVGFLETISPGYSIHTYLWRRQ
Assay: Enhancement of β-glucocerebrosidase activity measured in Gaucher disease fibroblasts (4-MU-β-D-glucopyranoside substrate, intact cells)
Assay type: cell-based
Set-up: key: Increase in comparison with non-treated of >2.0 fold is shown as A; Increase in comparison with non-treated of >1.7-2.0 fold is shown as B; Increase in comparison with non-treated of 1.2-1.7 fold is shown as C; D means that no increase compared with non-treated cells was detected in this method
Conditions: GBA fibroblasts bearing L444P (GM08760A, homozygous p.L444P); compound at concentrations between 6 and 50 μM; 4 days incubation
Protocol: Human fibroblasts from a patient with Gaucher disease homozygous for p.L444P mutation (GM08760A) were purchased from Coriell Institute for Medical Research (Camden, NJ, USA).
Fibroblasts were seeded at 5×10^3 cells per well in 96-well cell culture plates (Corning, NY, USA) in Dulbecco's Modified Eagle's Media (DMEM) supplemented with 10% of fetal bovine serum (FBS), 1% penicillin/streptomycin (P/S) (Thermo Fisher Scientific, Waltham, MA, USA) and grown at 37° C., 5% CO2 overnight for cell attachment. Subsequently, cells were incubated in the absence or presence of the compounds at the desired concentration for 4 days. After incubation, cells were washed twice with phosphate-buffered saline (PBS) and enzyme activity assay was performed.
β-glucocerebrosidase activity in intact cultured cells was measured by using 4-methylumbelliferyl-β-D-glucopyranoside substrate (Apollo Scientific, UK). Briefly, cells were incubated with 4-MU-β-D-glucopyranoside in 0.1 M acetate buffer pH=4 at 37° C. for 1 hour. The reaction was stopped by adding 200 μL at 100 mM glycine-NaOH pH=10.7. The liberated 4-MU was measured on a GloMax Discover plate reader (Promega, Madison, WI, USA) with and excitation at 340 nm and emission at 460 nm. Enzyme activities were expressed in treated cells as X-fold increase in comparison with non-treated cells (X=1 represents no enhancement).
The capacity of the compounds of the disclosure to produce an increase in enzyme activity in GBA fibroblasts bearing L444P at concentrations between 6 and 50 μM is denoted as follows: • Increase in comparison with non-treated of >2.0 fold is shown as A • Increase in comparison with non-treated of >1.7-2.0 fold is shown as B • Increase in comparison with non-treated of 1.2-1.7 fold is shown as C • D means that no increase compared with non-treated cells was detected in this method • ND means “not determined”

Row | SMILES | Range: increase in enzyme activity in comparison with non-treated cells (Enzyme activity assay for compounds of Examples 33-141) | Range: increase in enzyme activity in comparison with non-treated cells (Enzyme activity assay for exemplified compounds)
1 | Nc1cc(Nc2ccccc2O)cc(C(=O)Nc2ccccc2)n1 [Example 65, 6-Amino-4-((2-hydroxyphenyl)amino)-N-phenylpicolinamide] | A (Increase in comparison with non-treated of >2.0 fold is shown as A) | 
2 | Nc1cc(C(=O)N2CCc3ccccc32)nc(Nc2ccccc2O)n1 [Example 37, (6-Amino-2-((2-hydroxyphenyl)amino)pyrimidin-4-yl)(indolin-1-yl)methanone] | D | 
3 | Nc1cc(Nc2ccccc2O)cc(C(=O)N2Cc3ccccc3C2)n1 [Example 58, (6-Amino-4-((2-hydroxyphenyl)amino)pyridin-2-yl)(isoindolin-2-yl)methanone] | B (Increase in comparison with non-treated of >1.7-2.0 fold is shown as B) | 
4 | COc1ccccc1Nc1cc(N)cc(C(=O)NC2Cc3ccccc3C2)n1 [Example 54, 4-Amino-N-(2,3-dihydro-1H-inden-2-yl)-6-((2-methoxyphenyl)amino)picolinamide] | C (Increase in comparison with non-treated of 1.2-1.7 fold is shown as C) | 
5 | Nc1nc2c(c(Nc3ccccc3O)n1)CCN(c1ccccc1)C2 [Example 32, 2-((2-Amino-7-phenyl-5,6,7,8-tetrahydropyrido[3,4-d]pyrimidin-4-yl)amino)phenol] |  | B (Increase in comparison with non-treated of >1.7-2.0 fold is shown as B)
6 | COc1cccc(Nc2nc(N)cc(C(=O)N3Cc4ccccc4C3)n2)c1 [Example 38, (6-Amino-2-((3-methoxyphenyl)amino)pyrimidin-4-yl)(isoindolin-2-yl)methanone] | D | 
7 | COc1ccccc1Nc1cc(N)nc(C(=O)N(C)c2ccccc2)c1 [Example 50, 6-Amino-4-((2-methoxyphenyl)amino)-N-methyl-N-phenylpicolinamide] | D | 
8 | CN(Cc1ccccc1)C(=O)c1cc(N)nc(Nc2ccccc2O)n1 [Example 4, 6-Amino-N-benzyl-2-((2-hydroxyphenyl)amino)-N-methylpyrimidine-4-carboxamide] |  | C (Increase in comparison with non-treated of 1.2-1.7 fold is shown as C)
9 | Nc1cc(Nc2cc(F)cc(F)c2)nc(C(=O)NC2Cc3ccccc3C2)c1 [Example 109, 4-Amino-6-((3,5-difluorophenyl)amino)-N-(2,3-dihydro-1H-inden-2-yl)picolinamide] | A (Increase in comparison with non-treated of >2.0 fold is shown as A) | 
10 | Nc1cc(C(=O)N2CCc3ccccc3C2)nc(Nc2ccccc2O)n1 [Example 35, (6-Amino-2-((2-hydroxyphenyl)amino)pyrimidin-4-yl)(3,4-dihydroisoquinolin-2(1H)-yl)methanone] | C (Increase in comparison with non-treated of 1.2-1.7 fold is shown as C) | 
11 | COc1cccc(Nc2cc(N)cc(C(=O)NC3Cc4ccccc4C3)n2)c1 [Example 100, 4-Amino-N-(2,3-dihydro-1H-inden-2-yl)-6-((3-methoxyphenyl)amino)picolinamide] | A (Increase in comparison with non-treated of >2.0 fold is shown as A) | 
12 | COc1cccc(Nc2cc(N)nc(C(=O)NC3Cc4ccccc4C3)c2)c1.Cl [Example 141, 6-Amino-N-(2,3-dihydro-1H-inden-2-yl)-4-((3-methoxyphenyl)amino)picolinamide hydrochloride] | C (Increase in comparison with non-treated of 1.2-1.7 fold is shown as C) | 
